Experimental data: patent publication US9568483B2, “Molecular subtyping, prognosis and treatment of prostate cancer” (CORNELL UNIVERSITY, priority 2011, dated 2017)
“Also recorded” adds a separate entry of the source.

Legend:
LNCaP cells = experiment: Cell cycle FACS analysis, LNCaP; assay type: cell-based; conditions: 48 hrs treatment
Description: (§1) Cell Cycle Analysis. Cells were treated with PHA-739358 for 48 hrs. After treatment, cells were washed with cold PBS and fixed in 70% EtOH at −20° C. overnight. Cells were washed and suspended in 500 μl PBS containing 0.1% Triton X-100, 20 μg/ml Propidium Iodide (PI) and 200 μg/ml RNase A, incubated for 30 min at room temperature and subjected to FACS analysis using a LSR II Analyzer (BD Biosciences).

LTL-352 xenograft = LTL-352 xenograft study; assay type: in vivo, NOD/SCID mice; conditions: LTL-352 xenografts; 30 mg/kg IP BID, 5 days; P<0.001
Description: (§2) Drug Treatment. PHA-739358 was obtained from Nerviano Medical Sciences (Milan, Italy) in powder form (MW 414.36). Prostate cell lines for this study were obtained from the American Type Culture Collection (Manassas, Va.). RWPE (20×10^3 per well), NCI-H660 (20×10^3), DU145 (5×10^3 per well), VCaP (20×10^3 per well) and LNCaP (1.5×10^4 per well) cells were seeded on 96-well-tissue culture plates. At 24 hours, cell lines were treated with vehicle (0.5% DMSO) or escalating doses of PHA-739358 (5 nM, 50 nM, 100 nM, 500 nM, 1 uM, 5 uM). At 48 hr, 72 h, 96 h, and 120 h, viability was assessed by performing WST-1 assay (Roche, Indianapolis, Ind.) reading absorbance at 450 nm according to the manufacturer's instructions. Xenografts were prepared by injection of 1 million NCI-H660 cells, VCaP cells, or LNCaP cells into NU/J mice (Jackson Laboratories, Bar Harbor, Me.). LTL-362 xenografts were established at BC Cancer Center Living Tumor Laboratory as previously described (TUNG et al., Prostate (2010)). […] Mice were sacrificed on day 17, and tumors were evaluated for weight, gross pathology, histology, and IHC. […]
(§3) Xenografts. […] Mice were sacrificed on day 17, and tumors were evaluated for weight, gross pathology, histology, and IHC. […] Analysis was performed using LivingImage software (Xenogen) by measurement of the average photon flux (measured in photons/s/cm2/steradian) within a region of interest.

NCI-H660 cells [1] = experiment: WST-1 viability assay, NCI-H660; assay type: cell-based, human; conditions: compared to two PCA cell lines (DU145, VCaP) and benign RWPE-1 cells; 72 hours; FIG. 4B
Description: as §2, with “(2010)). 3×3×2 […] tissue fragments were subcutaneously engrafted into fourteen 6-8 week old NOD/SCID mice. All xenograft tumors were allowed to grow to an average tumor […] of 100 mm^3.” for “(2010)).”

LNCaP-n-Myc cells = experiment: WST-1 viability assay, LNCaP cells stably transfected with MYCN; assay type: cell-based; conditions: compared to control LNCaP cells (LNCaP-EV); 72 hours; FIG. 4A
Description: as §2, with “(2010)). 3×3×2 […] tissue fragments were subcutaneously engrafted into fourteen 6-8 week old NOD/SCID mice. All xenograft tumors were allowed to grow to an average tumor […] of 100 mm^3.” for “(2010)).”

LNCaP-MYCN cells = experiment: Cell cycle FACS analysis, LNCaP-MYCN; assay type: cell-based; conditions: 48 hrs treatment
Description: as §1

VCaP xenografts = experiment: VCaP xenograft study; assay type: in vivo, NU/J mice; conditions: 30 mg/kg intraperitoneal, days 1-5
Description: as §2, §3

NCI-H660 cells [2] = experiment: Cell cycle FACS analysis, NCI-H660; assay type: cell-based, human; conditions: 48 hrs treatment
Description: as §1

LNCaP xenografts = experiment: LNCaP xenograft study; assay type: in vivo, NU/J mice
Description: as §2, with “Me.).” for “Me.). LTL-362 xenografts were established at BC Cancer Center Living Tumor Laboratory as previously described (TUNG et al., Prostate (2010)).”
(§4) Immunohistochemistry (IHC). […] IHC was quantified on scale 0-3 and overexpression was defined as any staining intensity seen of target cells above background (similar methodology as was used in PARK et al., Neoplasia, 12:590-8 (2010)).
(§5) Xenografts. […] Mice were sacrificed on day 17, and tumors were evaluated for weight, gross pathology, histology, and IHC. […]

NCI-H660 xenografts = experiment: NCI-H660 xenograft study; assay type: in vivo, NU/J mice
Description: Drug Treatment. PHA-739358 was obtained from Nerviano Medical Sciences (Milan, Italy) in powder form (MW 414.36). Prostate cell lines for this study were obtained from the American Type Culture Collection (Manassas, Va.). RWPE (20×10^3 per well), NCI-H660 (20×10^3), DU145 (5×10^3 per well), VCaP (20×10^3 per well) and LNCaP (1.5×10^4 per well) cells were seeded on 96-well-tissue culture plates. At 24 hours, cell lines were treated with vehicle (0.5% DMSO) or escalating doses of PHA-739358 (5 nM, 50 nM, 100 nM, 500 nM, 1 uM, 5 uM). At 48 hr, 72 h, 96 h, and 120 h, viability was assessed by performing WST-1 assay (Roche, Indianapolis, Ind.) reading absorbance at 450 nm according to the manufacturer's instructions. Xenografts were prepared by injection of 1 million NCI-H660 cells, VCaP cells, or LNCaP cells into NU/J mice (Jackson Laboratories, Bar Harbor, Me.). LTL-362 xenografts were established at BC Cancer Center Living Tumor Laboratory as previously described (TUNG et al., Prostate (2010)). 3×3×2 […] tissue fragments were subcutaneously engrafted into fourteen 6-8 week old NOD/SCID mice. All xenograft tumors were allowed to grow to an average tumor […] of 100 mm^3. 20 LNCaP, 20 VCaP, 40 NCI-H660, 14 LTL-362 mice were randomized to treatment with PHA-739358 at 30 mg/kg intraperitoneal dosing on days 1-5 or vehicle. Body weight, tumor volume based on caliper measurements ([…]) and luciferase imaging were performed every 3 or 4 days after treatment. Mice were sacrificed on day 17, and tumors were evaluated for weight, gross pathology, histology, and IHC. Three tumors were processed during treatment (on day 4) to evaluate for phosphorylated histone 3 expression by IHC.
as §4, §5

[3] = mouse, in vivo, ip, 30 mg/kg
Description: as §2, §3

Compound: CO[C@@H](C(=O)N1Cc2n[nH]c(NC(=O)c3ccc(N4CCN(C)CC4)cc3)c2C1)c1ccccc1 [PHA-739358]
- Polyploidy (LNCaP cells): induced
- G2/M arrest (LNCaP cells; FIG. 5): dose dependent G2/M arrest
- average tumor shrinkage (LTL-352 xenograft): 50-87%
- sensitivity (viability) (NCI-H660 cells [1]): enhanced sensitivity
- in vitro sensitivity (viability) (LNCaP-n-Myc cells): enhanced in vitro sensitivity
- Polyploidy (LNCaP-MYCN cells): induced
- G2/M arrest (LNCaP-MYCN cells; FIG. 5): dose dependent G2/M arrest
- effect on tumor size (VCaP xenografts): cytostatic effect
- Polyploidy (NCI-H660 cells [2]): induced
- G2/M arrest (NCI-H660 cells [2]; FIG. 5): no significant G2/M arrest
- effect on tumor size (LNCaP xenografts; LNCaP xenografts, 30 mg/kg IP BID, 5 days): no effect
- Phosphorylated histone 3 expression (IHC) (LNCaP xenografts; treated LNCaP xenografts, day 4 of treatment): not in the LNCaP xenografts
- average tumor shrinkage (NCI-H660 xenografts; NCI-H660 xenografts, 30 mg/kg IP BID, 5 days, P<0.001): 50-87%
- SYP (synaptophysin) expression (IHC) (NCI-H660 xenografts; treated NCI-H660 xenografts, FIG. 4F): negative; also recorded: completely suppressed
- Phosphorylated histone 3 expression (IHC) (NCI-H660 xenografts; treated NCI-H660 xenografts, day 4 of treatment): significantly inhibited
- toxicity as determined by body weight [3]: without significant toxicity
